pIC50: −log10 of the molar value.
Legend:
A-431 = assay: Cytotoxicity against human A431 cells at 100 uM by SRB method; format: cell-based; conditions: a-431, 100 µM
[1] = biological target: T1, Tyrosine-protein phosphatase non-receptor type 1 (Homo sapiens, UniProt P18031); assay: Inhibition of PTP1B (unknown origin) using nitrophenyl phosphate as substrate after 30 mins by spectrophotometry
T1 sequence (P18031 whole entry): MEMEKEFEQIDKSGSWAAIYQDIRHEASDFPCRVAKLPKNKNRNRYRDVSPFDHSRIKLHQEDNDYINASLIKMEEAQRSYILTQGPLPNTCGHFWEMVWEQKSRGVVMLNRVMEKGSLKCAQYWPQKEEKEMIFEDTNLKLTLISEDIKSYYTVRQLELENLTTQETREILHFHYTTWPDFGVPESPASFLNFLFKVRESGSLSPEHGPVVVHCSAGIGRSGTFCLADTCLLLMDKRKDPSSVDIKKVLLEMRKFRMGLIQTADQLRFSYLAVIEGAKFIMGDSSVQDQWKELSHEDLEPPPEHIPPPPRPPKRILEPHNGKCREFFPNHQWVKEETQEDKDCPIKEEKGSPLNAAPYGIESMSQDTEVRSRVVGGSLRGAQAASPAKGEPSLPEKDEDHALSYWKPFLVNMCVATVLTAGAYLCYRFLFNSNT

With CC1=CC(C)(C)N=C2C[C@]3(C)C(=O)C(C)(C)N=C3C(C)=C12 the Activity (A-431) was “Non-toxic” and the pIC50 [1] was 5.19.
In the case of CC1=CC(C)(C)N=C2C[C@@]3(C)CC(=O)C(C(C)C)=C3C=C12, the Activity (A-431) was “Non-toxic” and the pIC50 [1] was 5.01.
In the case of CC1=CC(C)(C)N=C2C[C@@]3(C)CC(=O)C(C(C)C)=CC3=C12, the Activity (A-431) was “Non-toxic” and the pIC50 [1] was 5.00.
